14 compounds from ChEMBL document CHEMBL1201862, “PubChem BioAssay data set” (2004) can be followed below.

SMILES strings stand for the structures.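 Assay format: 96-well plates, 48-hour exposure. Here, GI50 denotes the concentration required for 50% inhibition of growth.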 Calls of active or inactive are those of the source. Cut-off read from the data, not from the text of the source: active = GI50 up to about 1.1 µM and inactive = higher.

Test systems include A498; ACHN; CAKI-1; COLO 205; DMS-114; HCC 2998; KM-20L2; LXFL 529; NCI-H226; NCI-H522; OVCAR-3; SK-MEL-28; SNB-78; SR; HOP-92; HCT-15; MDA-N; NCI/ADR-RES; PC-3; DMS-273.
What all share (test): DTP human tumour cell line panel, 48 h

For orientation: GI50 means the concentration that inhibits growth by half.

As for `CCOC(=O)C1=C(C)N(C2OC(COC(=O)c3ccccc3)C(OC(=O)c3ccccc3)C2OC(=O)c2ccccc2)C(=S)NC1c1ccccc1` (stereo not drawn), the GI50 in the experiment with A498 was 28.2 µM (inactive); in the experiment with ACHN it was 25.1 µM (inactive); with CAKI-1, 24.4 µM (inactive); with COLO 205, 33.6 µM (inactive); in the experiment on DMS-114, 19 µM (inactive); with HCC 2998, 49.2 µM (inactive). Moreover, the GI50 is 43.6 µM (inactive) in the experiment with KM-20L2; 27.2 µM (inactive) in the experiment on LXFL 529; 31.1 µM (inactive) with NCI-H226; 22.1 µM (inactive) in the experiment with NCI-H522; 21.9 µM (inactive) with OVCAR-3; 49.2 µM (inactive) in the experiment with SK-MEL-28. Also, the GI50 in the experiment with SNB-78 is 31.8 µM (inactive); in the experiment with SR, 20 µM (inactive).

As for `O=C1C(Cl)N(c2cccc(Cl)c2)C1c1c[nH]c2ccccc12` (stereo not drawn), the GI50 with COLO 205, in the experiment on DMS-114, in the experiment with HOP-92, in the experiment on KM-20L2, in the experiment on LXFL 529 and with NCI-H522 was > 100 µM (inactive) each time. Besides, the GI50 in the experiment on OVCAR-3, in the experiment with SK-MEL-28 and with SR was > 100 µM (inactive) throughout.

For the compound `O=C(CC(C(=O)c1cccs1)c1ccc2c(c1)OCO2)c1ccc(Br)cc1` (stereo not drawn), the GI50 in the experiment with A498 is > 100 µM (inactive); with ACHN it was > 100 µM (inactive); with CAKI-1, > 100 µM (inactive); with COLO 205, > 100 µM (inactive); in the experiment on HCC 2998, > 100 µM (inactive); in the experiment on HCT-15 it was more than 100 µM. For the same compound, the GI50 with MDA-N, with NCI-H226, with NCI/ADR-RES, in the experiment on PC-3, in the experiment with SK-MEL-28 and with SR was > 100 µM (inactive) in each case.

As to `COc1ccc(-c2cc(-c3cc(OC)c(OC)c(OC)c3)cc(-c3cc4ccccc4oc3=O)n2)cc1`, the GI50 is 5.65 µM (inactive) in the experiment on A498; 4.13 µM (inactive) in the experiment on ACHN; 4.86 µM (inactive) with CAKI-1; > 100 µM (inactive) in the experiment on COLO 205; 17.3 µM (inactive) in the experiment on HCC 2998; 30.9 µM in the experiment with HCT-15. The GI50 in the experiment on HOP-92 is 4.07 µM (inactive); with MDA-N it was 11.6 µM (inactive); in the experiment on NCI-H226, 3.95 µM (inactive); in the experiment with NCI-H522, 6.85 µM (inactive); in the experiment with NCI/ADR-RES, 7.18 µM (inactive); in the experiment on OVCAR-3 it was 17 µM (inactive). Besides, the GI50 in the experiment with PC-3 is 19.6 µM (inactive); with SR, 9.79 µM (inactive).

As to `Clc1cc2c(c(CSC3=NCN(CC4CC4)CN3)c1)OCOC2`, the GI50 was 20.7 µM (inactive) in the experiment with A498; 17.6 µM (inactive) in the experiment with ACHN; 34.2 µM (inactive) in the experiment on CAKI-1; 13.6 µM (inactive) in the experiment on COLO 205; 15.2 µM (inactive) in the experiment with HCC 2998; 21.5 µM in the experiment with HCT-15. Also, the GI50 is 37.6 µM (inactive) in the experiment on HOP-92; 16.3 µM (inactive) in the experiment on MDA-N; 20.7 µM (inactive) with NCI-H226; 14.5 µM (inactive) with NCI-H522; 20.6 µM (inactive) with NCI/ADR-RES; 23.4 µM (inactive) in the experiment on OVCAR-3. Also, the GI50 with PC-3 was 23 µM (inactive); in the experiment with SK-MEL-28, 19.8 µM (inactive); in the experiment with SR it was 15.2 µM (inactive).

On to `COc1ccc2c(c1)CCN=C2Cc1cc(OC)c(OC)cc1CCCl`, for which the GI50 was 57 µM (inactive) in the experiment on ACHN; > 100 µM (inactive) in the experiment with CAKI-1; 58.7 µM (inactive) in the experiment with COLO 205; 30.5 µM (inactive) in the experiment on HCC 2998; 11.1 µM (inactive) in the experiment on HOP-92; 53.8 µM (inactive) with MDA-N. The GI50 with NCI-H226 is 64.6 µM (inactive); in the experiment with NCI-H522, 21.7 µM (inactive); in the experiment on NCI/ADR-RES, > 100 µM (inactive); in the experiment on OVCAR-3, 22.7 µM (inactive); with PC-3, 48 µM (inactive); in the experiment on SK-MEL-28, 66.2 µM (inactive). In the experiment on SR, the GI50 is 94.6 µM (inactive).

`N#CC1(C#N)C(=O)c2ccncc2C1=O`: the GI50 in the experiment with A498 is > 100 µM (inactive); in the experiment with ACHN, > 100 µM (inactive); in the experiment with CAKI-1, > 100 µM (inactive); with COLO 205 it was > 100 µM (inactive); in the experiment on HCC 2998, > 100 µM (inactive); in the experiment with HCT-15, more than 100 µM. Also, the GI50 with HOP-92 was > 100 µM (inactive); with MDA-N, > 100 µM (inactive); with NCI-H226 it was > 100 µM (inactive); in the experiment on NCI-H522 it was > 100 µM (inactive); with NCI/ADR-RES it was 63.7 µM (inactive); in the experiment with OVCAR-3, > 100 µM (inactive). Besides, the GI50 in the experiment on PC-3, in the experiment on SK-MEL-28 and in the experiment on SR was > 100 µM (inactive) throughout.

In the case of `CN1NC(c2ccccc2)=C(C#N)C(=O)CC1c1ccc(Br)cc1` (stereo not drawn), the GI50 is 40.4 µM (inactive) in the experiment with A498; 34 µM (inactive) in the experiment on ACHN; 41.9 µM (inactive) in the experiment with CAKI-1; 34.5 µM (inactive) with HCC 2998; 24.3 µM in the experiment with HCT-15; 35.2 µM (inactive) in the experiment with HOP-92. Further, the GI50 in the experiment with KM-20L2 was > 10 µM (inactive); in the experiment on LXFL 529, 35.7 µM (inactive); with NCI-H226, 0.123 µM (active); in the experiment on NCI-H522, 22.3 µM (inactive); in the experiment on SK-MEL-28 it was 48 µM (inactive); in the experiment with SNB-78, 48.8 µM (inactive). In addition, the GI50 in the experiment on SR is 36.2 µM (inactive).

With `O=C1NC2=C(CCCC/C2=N\O)C12CCCCC2`, the GI50 is > 100 µM (inactive) with A498; > 100 µM (inactive) in the experiment with ACHN; > 100 µM (inactive) with DMS-114; > 100 µM (inactive) in the experiment on HCC 2998; more than 100 µM in the experiment with HCT-15; > 100 µM (inactive) in the experiment with KM-20L2. The GI50 with LXFL 529 is > 100 µM (inactive); in the experiment on NCI-H226 it was > 100 µM (inactive); with OVCAR-3, > 100 µM (inactive); in the experiment on SK-MEL-28 it was > 100 µM (inactive); in the experiment with SNB-78 it was > 100 µM (inactive); in the experiment with SR, 80.9 µM (inactive).

Regarding `COc1cc(/C=C/C(=O)C(C)(C)C)cc(OC)c1OC`, the GI50 in the experiment on ACHN is 39.7 µM (inactive); in the experiment with CAKI-1, 50.1 µM (inactive); with COLO 205 it was 40 µM (inactive); in the experiment with DMS-114, 25.6 µM (inactive); in the experiment with DMS-273, 40.1 µM (inactive); in the experiment with HCC 2998, 48.2 µM (inactive). For the same compound, the GI50 is 61.8 µM in the experiment on HCT-15; 41.1 µM (inactive) with HOP-92; 51.1 µM (inactive) with KM-20L2; 22.8 µM (inactive) with LXFL 529; 33.6 µM (inactive) in the experiment with NCI-H226; 29 µM (inactive) with NCI-H522. The GI50 was 37.2 µM (inactive) in the experiment with OVCAR-3, 63 µM (inactive) in the experiment on SK-MEL-28 and 30.2 µM (inactive) in the experiment on SR.

Take `C=C(C)[C@@H]1CCC2=C[C@H](CC(C)=CC3=CC(C)=C(O3)[C@@H]1OC)OC2=O`: the GI50 with A498 was 53.6 µM (inactive); with ACHN it was 76.6 µM (inactive); with CAKI-1, > 100 µM (inactive); in the experiment with COLO 205, > 100 µM (inactive); with HCC 2998 it was > 100 µM (inactive); with HCT-15, more than 100 µM. In addition, the GI50 in the experiment on HOP-92 is 33.3 µM (inactive); in the experiment on MDA-N it was > 100 µM (inactive); with NCI-H226 it was 73.8 µM (inactive); in the experiment with NCI-H522, > 100 µM (inactive); with NCI/ADR-RES, 90.4 µM (inactive); in the experiment with OVCAR-3 it was > 100 µM (inactive). The GI50 with PC-3 is 83.8 µM (inactive); with SK-MEL-28, > 100 µM (inactive); with SR, > 100 µM (inactive).

As for `CCOC(=O)c1ccc(N(CCOS(=O)(=O)c2ccc(C)cc2)CCOS(=O)(=O)c2ccc(C)cc2)cc1`, the GI50 with A498 was > 100 µM (inactive); with ACHN, 6.78 µM (inactive); in the experiment on CAKI-1 it was 4.94 µM (inactive); with COLO 205, > 100 µM (inactive); in the experiment with HCC 2998 it was > 100 µM (inactive); with HCT-15, more than 100 µM. Moreover, the GI50 with HOP-92 is > 100 µM (inactive); in the experiment with MDA-N, > 100 µM (inactive); in the experiment on NCI-H522, > 100 µM (inactive); in the experiment on NCI/ADR-RES, > 100 µM (inactive); in the experiment on OVCAR-3, > 100 µM (inactive); in the experiment on PC-3 it was 17 µM (inactive).

For `Cc1ccc(Nc2n[nH]c(NS(=O)(=O)c3cc(C(=O)Nc4ccc(Cl)cc4)c(Cl)cc3S)n2)cc1`, the GI50 was > 100 µM (inactive) with ACHN; > 100 µM (inactive) in the experiment on CAKI-1; > 100 µM (inactive) with COLO 205; more than 100 µM with HCT-15; > 100 µM (inactive) in the experiment on MDA-N; > 100 µM (inactive) in the experiment with NCI/ADR-RES. The GI50 in the experiment on OVCAR-3, with PC-3, in the experiment with SK-MEL-28 and in the experiment with SR was > 100 µM (inactive) each time.

On to `C[C@]12CCC(=O)C(O)=C1CC[C@@H]1[C@@H]2CC[C@]2(C)C(=O)CC[C@@H]12` [FORMESTANE], for which the GI50 is > 84.5 µM (inactive) with A498; > 100 µM (inactive) in the experiment on ACHN; > 92.9 µM (inactive) in the experiment on CAKI-1; > 100 µM (inactive) in the experiment with COLO 205; > 100 µM (inactive) with DMS-114; > 100 µM (inactive) in the experiment with HCC 2998. In addition, the GI50 is more than 100 µM in the experiment with HCT-15; > 81.8 µM (inactive) in the experiment on HOP-92; > 100 µM (inactive) in the experiment with KM-20L2; 59.3 µM (inactive) in the experiment on LXFL 529; > 100 µM (inactive) in the experiment on MDA-N; > 100 µM (inactive) in the experiment with NCI-H226. In addition, the GI50 in the experiment with NCI-H522, with NCI/ADR-RES, in the experiment with OVCAR-3, in the experiment with PC-3, in the experiment on SK-MEL-28 and in the experiment with SNB-78 was > 100 µM (inactive) in each case. Also, the GI50 in the experiment with SR was > 100 µM (inactive).
